According to patent publication US20090099237A1, “Methods of treating inflammatory diseases” (Roche Palo Alto LLC, priority 2007, published 2009):

How the values were obtained:
[1] = test system: IL-8 production in neutrophils; assay: Neutrophil assay, IL-8 production; format: cell-based; conditions: human neutrophils stimulated by inflammatory agents; FIG. 2
Excerpt: (§1) Selective CK1α, CK1α-CK1δ, CK1α-CK1ε or CK1α-CK1δ-CK1ε inhibitors can be tested for their antiinflammatory effects using a variety of in vitro and in vivo tests that are well known in the art. One such in vitro test involves the application of the inhibitor to human neutrophils to observe whether the induction of inflammatory cytokines, such as IL-8, by tumor necrosis factor (TNF) or lipopolysaccharide (LPS) can be reduced. This test is further described in Example 3. An example of an in vivo test, as described in Example 4, is the air pouch model of inflammatory synovitis in mice in which the inhibitors are tested for their blockade of neutrophil influx as well as of inflammatory cytokine accumulation.
The Histopaque 1077 and 1119 gradient density centrifugation method (Sigma-Aldrich) was used to isolate granulocytes from human blood. The granulocytes were recovered from the 1077/1119 interphase, washed twice with PBS. The red blood cells were lysed with PureGene red cell lysis buffer (Gentra Biosystems). The cells were washed again and resuspended in growth media (RPMI, 10% FBS, β-mercaptoethanol, Pen/Strep/glutamine and sodium pyruvate) at a density of 1 to 5 million per ml. […] The supernatant was analyzed for cytokine production (Luminex human 22-plex assay) and the cells were lysed for RNA production and analysis.

[2] = test system: LPS-induced air pouch synovitis; assay: Air pouch synovitis model; format: in vivo, Balbc/J mice; conditions: 1 μg LPS, FIG. 3
Excerpt: as §1
Adult Balbc/J mice were purchased from Charles River Labs and housed and utilized according IACUC protocols and standards. The airpouch was inflated on the dorsal surface of each mouse with 3 ml of air, after light anesthesia with CO2/O2 mix. Three days later each pouch was re-inflated with 3 mls of air. After an additional three days, the pouches were injected with vehicle or compound (normally in 0.1% DMSO in PBS) in 1 ml per pouch. After 20 to 30 minutes, each pouch received 1 μg of LPS or control (PBS). The animals were euthanized four to six hours later. The pouches were flushed with 2 ml of PBS, the cells were then collected, counted and normalized for volume recovered. The fluid recovered was analyzed for cytokine production (Luminex Mouse 21-plex assay). The cells were lysed for RNA or protein analysis.

CK1α = target: T1, CK1α (Homo sapiens, UniProt P48729); assay: In vitro kinase assay (33P, peptide substrate); format: biochemical
T1 construct: purchased Invitrogen
T1 sequence (P48729 whole entry): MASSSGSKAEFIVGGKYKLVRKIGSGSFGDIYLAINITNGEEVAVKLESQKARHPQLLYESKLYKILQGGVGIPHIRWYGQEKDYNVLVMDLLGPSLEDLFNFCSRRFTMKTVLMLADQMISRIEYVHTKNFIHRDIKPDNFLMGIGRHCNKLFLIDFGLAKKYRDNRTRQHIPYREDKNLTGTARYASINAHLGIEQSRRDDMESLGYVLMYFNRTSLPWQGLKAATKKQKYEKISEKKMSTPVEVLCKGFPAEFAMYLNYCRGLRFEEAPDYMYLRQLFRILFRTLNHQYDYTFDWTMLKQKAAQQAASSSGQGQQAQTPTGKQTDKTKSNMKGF

## NC(=O)c1ccc(-c2nc(-c3ccc4c(c3)OCO4)c(-c3ccccn3)[nH]2)cc1 [SB431542, 4-(4-benzo-[1,3]dioxol-5-yl-5-pyridin-2-yl-1H-imidazol-2-yl)benzamide]
[1]
  inhibition of IL-8 production in neutrophils: dose-dependent inhibition
[2]; mouse air pouch fluid
  production of IL-6: inhibited
  production of MCP1: inhibited
[2]; mouse air pouch, compound injected into pouch
  neutrophil influx: inhibited
CK1α
  IC50: 1400 nM
